Values quoted from earlier work, collected in patent publication US20060217788A1, “Method of using laser induced injury to activate topical prodrugs” (priority 2004, published 2006).
Where no end group is shown, it is not given here. The star is where a group is joined. Palmitoyl = CCCCCCCCCCCCCCCC(=O)*

Tests used:
[1] = tested on: fibroblast cultures; conditions: in vitro
[2] = tested on: wrinkle improvement and photo-aging scores; conditions: 3 ppm, clinical studies
[3] = tested on: MMP-1, -2, -3, -7, -9 and -13

**Q.** Which “production of matrix components including collagen I, III and fibronectin” value [1] does the source give for “KTTKS [pentapeptide, subfragment of the carboxyl-terminal propeptide of type I collagen]” here?
**A.** Its value is “increased production”.

**Q.** Which results are given for “N-Palmitoyl-Lys-Thr-Thr-Lys-Ser (Palmitoyl-KTTKS) [Pal-KTTKS, pentapeptide conjugated to a 16-carbon fatty acid moiety, from Sederma]”?
**A.** irritation or changes in barrier function [2]: without significant irritation or changes in barrier function; wrinkle improvement and reduction of photo-aging scores [2]: comparable to retinoids

**Q.** Which “cleavage by MMPs” value [3] does the source give for “PLGLAARK [fairly broad spectrum peptide substrate cleavable by MMPs]” here?
**A.** The value was “cleavable”.
